In the NIST ThermoML archive (doi:10.1021/acs.jced.8b00157):

Assay: an = ratio of the nth substance listed
Conditions: 100 kPa, Liquid, Buoyancy - hydrostatic balance, a2 = 1.3

[F][Al]([F])[F] [aluminum fluoride] + [F-].[K+]
Conditions	mass density [kg/m3]
953.37 K	1875
953.87 K	1875
954.03 K	1875
954.2 K	1874
954.52 K	1874
954.85 K	1873
955.23 K	1873
955.66 K	1873
955.95 K	1873
956.45 K	1873
957 K	1872
957.09 K	1872
957.11 K	1872
957.15 K	1872
957.8 K	1871
958.17 K	1871
958.39 K	1870
958.54 K	1870
958.92 K	1870
959.36 K	1870
959.42 K	1870
959.67 K	1870
960.14 K	1869
960.36 K	1869
961.06 K	1868
961.27 K	1868
961.32 K	1868
961.88 K	1868
961.97 K	1868
962.58 K	1867
962.79 K	1866
962.82 K	1867
963.09 K	1867
963.44 K	1866
963.53 K	1866
964.23 K	1865
964.32 K	1865
964.85 K	1865
965.05 K	1865
965.38 K	1865
965.94 K	1864
966 K	1864
966.18 K	1864
966.56 K	1864
966.7 K	1863
967.24 K	1863
967.73 K	1862
967.75 K	1862
968.06 K	1862
968.94 K	1862
968.96 K	1862
969.15 K	1861
969.33 K	1861
969.99 K	1861
970.3 K	1861
970.44 K	1860
970.89 K	1860
970.98 K	1859
971.14 K	1860
971.87 K	1859
972.13 K	1859
972.25 K	1859
972.6 K	1859
972.98 K	1858
973.21 K	1858
973.66 K	1858
973.77 K	1858
973.95 K	1857
974.37 K	1857
974.77 K	1857
975.15 K	1856
975.67 K	1856
975.77 K	1856
975.97 K	1856
976.61 K	1855
976.86 K	1855
976.9 K	1855
977.25 K	1854
977.4 K	1854
977.66 K	1852
978.13 K	1852
978.34 K	1852
978.99 K	1852
979.14 K	1851
979.65 K	1850
979.83 K	1851
980.46 K	1850
980.58 K	1850
980.92 K	1850
980.95 K	1850
981.3 K	1849
981.38 K	1849
982.18 K	1849
982.5 K	1849
982.75 K	1848
983.17 K	1848
983.33 K	1847
983.99 K	1847
984.08 K	1847
984.17 K	1847
984.63 K	1846
985 K	1846
985.5 K	1846
985.61 K	1846
986.09 K	1845
986.53 K	1845
986.96 K	1845
987.09 K	1845
987.31 K	1844
987.8 K	1844
988.08 K	1844
988.26 K	1844
988.64 K	1843
988.78 K	1844
989.33 K	1843
989.41 K	1843
990.26 K	1842
990.32 K	1842
